Tests used:
aromatase [1] = target: T1, aromatase (Rattus norvegicus, UniProt P22443); assay: Assay of aromatase inhibition action (in vivo), inhibition of DHEAS-induced cornification of the vaginal smear; conditions: orally once a day for 4 days, hypophysectomized mature female rats, 16 mg/kg DHEAS, cornification relative to solvent administration group
T1 construct: mature female rats after one week from hypophysectomy were used; from tissue; host or cells: whole animal (hypophysectomised mature female rats)
T1 sequence (P22443 1-508): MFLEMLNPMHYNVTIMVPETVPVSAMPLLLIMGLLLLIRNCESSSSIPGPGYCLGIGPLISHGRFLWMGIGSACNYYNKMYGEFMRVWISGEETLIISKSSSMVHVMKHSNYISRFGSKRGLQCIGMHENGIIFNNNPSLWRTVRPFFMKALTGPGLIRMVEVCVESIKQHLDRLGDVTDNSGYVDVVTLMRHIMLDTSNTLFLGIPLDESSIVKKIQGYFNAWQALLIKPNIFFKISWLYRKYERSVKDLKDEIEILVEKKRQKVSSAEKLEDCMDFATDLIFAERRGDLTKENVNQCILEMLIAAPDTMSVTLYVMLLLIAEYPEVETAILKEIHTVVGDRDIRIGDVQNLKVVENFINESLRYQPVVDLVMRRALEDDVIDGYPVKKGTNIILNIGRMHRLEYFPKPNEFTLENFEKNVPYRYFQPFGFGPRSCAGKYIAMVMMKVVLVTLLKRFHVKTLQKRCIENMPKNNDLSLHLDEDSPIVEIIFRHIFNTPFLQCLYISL
Procedure: An aromatase inhibition action was assayed according to the method developed by G.H.Deckers and A.H.W.M.Schuurs (Journal of Steroid Biochemistry 32, 625-631, 1989).
Namely, mature female rats after one week from hypophysectomy were used with one group of 8 to 10 animals. Either 16 mg/kg of dehydroepiandrosterone sulfate (DHEAS) and 5 ml/kg of a solvent (physiological saline containing 2 % polysorbate 80), or DHEAS and a test compound suspended in the solvent were orally administered once a day for successive 4 days. For 6 days from the next day of start of the administration, the vaginal smear was sampled, and observed under a microscope after being stained with Giemsa staining solution. Cornification of the vaginal smear due to DHEAS was observed from 3 days after the initial administration, and its action disappeared 6 days thereafter. Therefore, the cornification smear number was expressed as the total of from the third day to the fifth day from the start of administration. An cornification inhibition action by the test compound was expressed as a rate to cornification in the solvent administration group.
Since cornification of the vaginal smear is caused by estrogens biosynthetically produced from DHEAS by aromatase, inhibition of the cornification is observed when aromatase is inhibited.

aromatase [2] = target: T2, aromatase (Homo sapiens, UniProt P11511); assay: Assay of aromatase inhibition action (in vitro), 3H2O release from [1β-3H]androstenedione; format: biochemical; conditions: freeze dried human placental microsomes, 2 µM [1β-3H]androstenedione, 180 µM NADPH, pH 7.5, 37°C, 20 minutes
T2 construct: Human placental microsomes (ones subjected to centrifugation at 105,000 X g for 60 minutes) were prepared according to the method of Ryan; from tissue; host or cells: human placenta (microsomal fraction)
T2 sequence (P11511 1-503): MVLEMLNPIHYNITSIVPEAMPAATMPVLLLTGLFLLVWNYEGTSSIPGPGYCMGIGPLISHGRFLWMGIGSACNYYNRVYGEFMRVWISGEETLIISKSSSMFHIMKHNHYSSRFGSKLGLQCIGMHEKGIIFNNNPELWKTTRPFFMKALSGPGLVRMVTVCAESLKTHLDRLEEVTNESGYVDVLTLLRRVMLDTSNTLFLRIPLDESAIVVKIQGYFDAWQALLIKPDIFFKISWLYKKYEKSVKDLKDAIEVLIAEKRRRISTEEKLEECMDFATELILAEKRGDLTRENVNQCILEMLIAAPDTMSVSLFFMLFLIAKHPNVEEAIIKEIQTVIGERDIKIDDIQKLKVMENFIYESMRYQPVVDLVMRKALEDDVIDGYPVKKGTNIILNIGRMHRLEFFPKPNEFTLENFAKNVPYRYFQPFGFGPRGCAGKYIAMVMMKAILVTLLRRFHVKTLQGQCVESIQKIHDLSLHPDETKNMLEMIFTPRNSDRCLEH
Procedure: Human placental microsomes (ones subjected to centrifugation at 105,000 X g for 60 minutes) were prepared according to the method of Ryan (The Journal of Biological Chemistry 234, 268-272, 1959). The microsomes were washed twice with 0.5 mM dithiothreitol solution, freeze dried, and stored at -20°C until use.
An aromatase inhibition action was assayed according to the method developed by Tompson and Siiteri (The Journal of Biological Chemistry 249, 5373-5378, 1974). Namely, the method comprises quantitatively determining ^3H2O released when [1β-^3H]androstenedione is aromatized. The experiment, when the enzyme was used, was conducted in 67 mM phosphate buffer (pH 7.5) so that the amount of the final incubation solution could be 0.5 ml. The incubation solution contains 180 µM of NADPH, 2 µM of [1β-^3H]androstenedione, 150 µg of freeze dried human placental microsomes, 25 µl of methanol and a test compound at various concentrations. Incubation was conducted in the air at 37°C for 20 minutes, 3 ml of chloroform was added to discontinue the reaction, and then the mixture was stirred for 40 seconds. The mixture was then centrifuged at 700 X g for 10 minutes, 0.3 ml of the aqueous solution was sampled from the supernatant, the scintillation mixture was added, and the amount of ^3H2O formed was measured.

Structure (SMILES): CO[C@@H]1C[C@@H]2[C@H](CC[C@]3(C)C(=O)OCC[C@@H]23)[C@@]2(C)C=CC(=O)C=C12 [Example 31, 6β-methoxy-D-homo-17-oxaandrosta-1,4-diene-3,17a-dione]
- Inhibition rate (%) (aromatase [1]; dose 5 mg/kg/day): 100%

Structure (SMILES): CC(=O)S[C@H]1C[C@H]2[C@@H]3CCOC[C@@]3(C)CC[C@@H]2[C@@]2(C)C=CC(=O)C=C12 [Example 19, 6α-(acetylthio)-D-homo-17-oxaandrosta-1,4-dien-3-one]
- Inhibition rate (%) (aromatase [1]; dose 5 mg/kg/day): 72.3%

Structure (SMILES): C[C@]12C=CC(=O)C=C1[C@@H](SC#N)C[C@@H]1[C@@H]2CC[C@]2(C)C(=O)OCC[C@@H]12 [Example 13 (6α), 6α-thiocyanato-D-homo-17-oxaandrosta-1,4-diene-3,17a-dione]
- Inhibition rate (%) (aromatase [1]; dose 5 mg/kg/day): 81.3%

Structure (SMILES): C[C@]12CC[C@H]3[C@@H](C[C@H](N=[N+]=[N-])C4=CC(=O)C=C[C@@]43C)[C@@H]1CCOC2 [Example 17, 6α-azido-D-homo-17-oxaandrosta-1,4-dien-3-one]
- Inhibition rate (%) (aromatase [1]; dose 5 mg/kg/day): 100%

Structure (SMILES): CS[C@@H]1C[C@H]2[C@@H]3CCOC[C@@]3(C)CC[C@@H]2[C@@]2(C)C=CC(=O)C=C12 [Example 10, 6β-(methylthio)-D-homo-17-oxaandrosta-1,4-dien-3-one]
- IC50 (aromatase [2]): 0.8 µM

Structure (SMILES): CC(=O)S[C@H]1C[C@@H]2[C@H](CC[C@]3(C)C(=O)OCC[C@@H]23)[C@@]2(C)C=CC(=O)C=C12 [Example 15, 6α-(acetylthio)-D-homo-17-oxaandrosta-1,4-diene-3,17a-dione]
- Inhibition rate (%) (aromatase [1]; dose 2 mg/kg/day): 90.9%
- IC50 (aromatase [2]): 1.6 µM

Source: EP0737689A1, “NOVEL 6-SUBSTITUTED OXA- OR […]” (TEIKOKU HORMONE MFG. CO., LTD., priority 1993, dated 1995)
